Results reported in ChEMBL document CHEMBL2401646 (Bioorg Med Chem Lett, 2013).
Values after ≈ are worked out from the molar mass of the structure shown.

Columns and labels:
[1] = Plasma concentration in human MKN45 cells xenografted in mouse at 100 mg/kg, po after 16 hrs; format: ADME, organism-based, MKN-45; set-up: dose 100 mg/kg, route oral
[2] = target: T1, ALK tyrosine kinase receptor (Homo sapiens, UniProt Q9UM73); assay: Inhibition of ALK autophosphorylation in human Karpas-299 cells; format: cell-based
[3] = Permeability of the compound at pH 7.4 by PAMPA; format: ADME; conditions: read-out: permeability
[4] = Antitumor activity against human U87MG cells xenografted in nu/nu CD1 mouse model assessed as tumor growth inhibition at 50 mg/kg, po bid for 14 days; format: functional, U-87MG ATCC; conditions: U-87 MG, 336 h, read-out: TGI
Aurora kinase B [5] = target: T2, Aurora kinase B (Homo sapiens, UniProt Q96GD4); assay: Inhibition of aurora-B in human HT-29 cells assessed as phosphorylation of histone H3 at Ser10; format: cell-based
[6] = target: T1, ALK tyrosine kinase receptor; assay: Inhibition of ALK (unknown origin) autophosphorylation
[7] = Antitumor activity against human U87MG cells xenografted in nu/nu CD1 mouse model assessed as tumor growth inhibition at 50 mg/kg, po qd for 14 days; format: functional, U-87MG ATCC; conditions: U-87 MG, 336 h, read-out: TGI
SNU-5 [8] = assay: Antitumor activity against human SNU5 cells xenografted in nu/nu CD1 mouse model assessed as maximum tumor regression at 100 mg/kg, po qd for 20 days
[9] = Solubility of the compound at pH 3; format: physicochemical; conditions: buffer
Salmonella typhimurium [10] = assay: Mutagenic activity in Salmonella typhimurium TA100 by Ames test in absence of liver S9 fraction; format: toxicity, organism-based; conditions: salmonella enterica subsp. enterica serovar typhimurium
[11] = Clearance in Sprague-Dawley rat at 2 mg/kg, iv; format: ADME, organism-based; set-up: dose 2 mg/kg, route intravenous; conditions: in vivo
Mus musculus [12] = assay: Toxicity in human U87MG cells xenografted nu/nu CD1 mouse model assessed as body weigh loss at 200 mg/kg, po qd for 14 days; format: organism-based, U-87MG ATCC; set-up: dose 200 mg/kg, route oral; conditions: in vivo, 336 h
Mus musculus [13] = assay: Toxicity in human SNU5 cells xenografted nu/nu CD1 mouse model assessed as body weigh loss at 50 mg/kg, po qd for 20 days; conditions: in vivo, 480 h
Mus musculus [14] = assay: Inhibition of cMET autophosphorylation at Y1234/1235 in human MKN45 cells xenografted in nu/nu CD1 mouse at 100 mg/kg, po qd for 14 days measured after 24 hrs of last dose; format: functional; conditions: MKN-45
[15] = target: T3, Hepatocyte growth factor receptor (Homo sapiens, UniProt P08581); assay: Inhibition of cMET in human MKN45 cells assessed as phosphorylated MET levels after 4 hrs in presence of mouse plasma; format: cell-based, MKN-45
SNU-5 [16] = assay: Antitumor activity against human SNU5 cells xenografted in nu/nu CD1 mouse model assessed as tumor growth inhibition at 50 mg/kg, po qd for 20 days; conditions: SNU-5, po, 480 h, read-out: TGI
[17] = target: T4, Macrophage-stimulating protein receptor (Homo sapiens, UniProt Q04912); assay: Inhibition of short-form RON (unknown origin) expressed in human HeLa cells assessed as phosphorylated RON levels after 4 hrs; format: cell-based
Salmonella typhimurium [18] = assay: Mutagenic activity in Salmonella typhimurium TA100 by Ames test in presence of liver S9 fraction; format: toxicity, organism-based; conditions: salmonella enterica subsp. enterica serovar typhimurium
MKN-45 = assay: Antitumor activity against human MKN45 cells xenografted in po dosed nu/nu CD1 mouse model assessed as tumor growth inhibition administered qd for 14 days; format: functional; conditions: MKN-45, po, 336 h
[19] = Metabolic stability in mouse liver microsomes assessed as extraction ratio up to 40 mins by LC-MS/MS analysis; format: ADME, Microsome; conditions: read-out: ERH
Aurora kinase B [20] = target: T2, Aurora kinase B; assay: Inhibition of aurora-B (unknown origin) autophosphorylation
[21] = target: T4, Macrophage-stimulating protein receptor; assay: Inhibition of RON (unknown origin) autophosphorylation
[22] = target: T3, Hepatocyte growth factor receptor; assay: Inhibition of cMET in human MKN45 cells assessed as phosphorylated MET levels after 4 hrs; format: cell-based, MKN-45
[23] = Solubility of the compound at pH 4.5; format: physicochemical; conditions: buffer
[24] = Clearance in CD1 mouse at 2 mg/kg, iv; format: ADME, organism-based; set-up: dose 2 mg/kg, route intravenous; conditions: in vivo
Mus musculus [25] = assay: Toxicity in human U87MG cells xenografted nu/nu CD1 mouse model assessed as body weigh loss at 100 mg/kg, po qd for 14 days; format: organism-based, U-87MG ATCC; set-up: dose 100 mg/kg, route oral; conditions: in vivo, 336 h
[26] = target: T5, Vascular endothelial growth factor receptor 2 (Homo sapiens, UniProt P35968); assay: Inhibition of KDR (unknown origin) autophosphorylation
Mus musculus [27] = assay: Toxicity in human U87MG cells xenografted nu/nu CD1 mouse model assessed as body weigh loss at 100 mg/kg, po bid for 14 days; format: organism-based, U-87MG ATCC; set-up: dose 100 mg/kg, route oral; conditions: in vivo, 336 h
[28] = Antitumor activity against human U87MG cells xenografted in nu/nu CD1 mouse model assessed as tumor growth inhibition at 100 mg/kg, po qd for 14 days; format: functional, U-87MG ATCC; conditions: U-87 MG, 336 h, read-out: TGI
[29] = Cmax in Sprague-Dawley rat at 20 mg/kg, po; format: ADME, organism-based; set-up: dose 20 mg/kg, route oral; conditions: in vivo
[30] = Solubility of the compound at around physiological pH; format: physicochemical
[31] = Half life in CD1 mouse at 2 mg/kg, iv; format: ADME, organism-based; set-up: dose 2 mg/kg, route intravenous; conditions: in vivo
Mus musculus [32] = assay: Inhibition of MET autophosphorylation at Y1234/1235 in human MKN45 cells xenografted in mouse at 100 mg/kg, po up to 8 hrs; format: functional; conditions: MKN-45, 8 h
[33] = target: T5, Vascular endothelial growth factor receptor 2; assay: Inhibition of KDR autophosphorylation in HUVEC
[34] = Antitumor activity against human U87MG cells xenografted in nu/nu CD1 mouse model assessed as tumor growth inhibition at 100 mg/kg, po bid for 14 days; format: functional, U-87MG ATCC; conditions: U-87 MG, 336 h, read-out: TGI
Salmonella typhimurium [35] = assay: Mutagenic activity in Salmonella typhimurium TA98 by Ames test in presence of liver S9 fraction; format: toxicity, organism-based; conditions: salmonella enterica subsp. enterica serovar typhimurium
Aurora kinase B [36] = target: T2, Aurora kinase B; assay: Inhibition of aurora-B in human HT-29 cells assessed as phosphorylation of histone H3 at Ser10 in presence of mouse plasma; format: cell-based
[37] = Plasma concentration in human MKN45 cells xenografted in mouse at 100 mg/kg, po up to 8 hrs; format: ADME, organism-based, MKN-45; set-up: dose 100 mg/kg, route oral
[38] = target: T3, Hepatocyte growth factor receptor; assay: Inhibition of cMET (unknown origin) using biotinylated poly(Glu,Tyr) as substrate after 60 mins
Mus musculus [39] = assay: Toxicity in human SNU5 cells xenografted nu/nu CD1 mouse model assessed as body weigh loss at 100 mg/kg, po qd for 20 days; conditions: in vivo, 480 h
[40] = target: Hepatocyte growth factor receptor (Homo sapiens, UniProt P08581, Y1230H); assay: Inhibition of cMET Y1230H mutant (unknown origin) autophosphorylation
Mus musculus [41] = assay: Toxicity in human U87MG cells xenografted nu/nu CD1 mouse model assessed as body weigh loss at 50 mg/kg, po qd for 14 days; format: organism-based, U-87MG ATCC; set-up: dose 50 mg/kg, route oral; conditions: in vivo, 336 h
[42] = Protein binding in mouse plasma by equilibrium dialysis; format: ADME, cell-free; conditions: read-out: PPB (converted)
[43] = Antitumor activity against human U87MG cells xenografted in nu/nu CD1 mouse model assessed as tumor growth inhibition at 200 mg/kg, po qd for 14 days; format: functional, U-87MG ATCC; conditions: U-87 MG, 336 h, read-out: TGI
Mus musculus [44] = assay: Inhibition of MET autophosphorylation at Y1234/1235 in human MKN45 cells xenografted in mouse at 100 mg/kg, po after 24 hrs; format: functional; conditions: MKN-45, 24 h

## C[C@@H](Oc1c(N)ncc2c(C3=CCN(C(N)=O)CC3)coc12)c1c(Cl)ccc(F)c1Cl
[1]
  concentration at 16 h: 520 nM
[2]
  IC50: 500 nM
[3]
  Papp: 359 ×10⁻⁶ cm/s
[4]
  inhibition in vivo at 50 mg/kg: 79%
Aurora kinase B [5]
  IC50: 1000 nM
[6]
  IC50: 40 nM
[7]
  inhibition in vivo at 50 mg/kg: 58%
SNU-5 [8]
  Activity: 64%
[9]
  solubility: > 100 µM
Salmonella typhimurium [10]
  Activity: Non-toxic
[11]
  clearance: 39 mL/min/kg
Mus musculus [12]
  Activity: 0%
Mus musculus [13]
  Activity: 4%
Mus musculus [14]
  inhibition in vivo at 100 mg/kg: > 90%
[15]
  IC50: 600 nM
SNU-5 [16]
  inhibition in vivo at 50 mg/kg: 100%
[17]
  IC50: 200 nM
Salmonella typhimurium [18]
  Activity: Non-toxic
MKN-45
  ED50: 50 mg/kg
[19]
  hepatic extraction ratio at 40 min: 0.7
Aurora kinase B [20]
  IC50: 11 nM
[21]
  IC50: 25 nM
[22]
  IC50: 42 nM
[23]
  solubility: 11 µM (≈ 5.12 µg/mL)
[24]
  clearance: 51 mL/min/kg
Mus musculus [25]
  Activity: 0%
[26]
  IC50: 1300 nM
Mus musculus [27]
  Activity: 0%
[28]
  inhibition in vivo at 100 mg/kg: 79%
[29]
  Cmax: 2500 nM
[30]
  solubility: 1 µM (≈ 0.465 µg/mL)
[31]
  half-life: 174 min
Mus musculus [32]
  inhibition in vivo at 100 mg/kg: > 80%
[33]
  IC50: 6.1 µM
[34]
  inhibition in vivo at 100 mg/kg: 97%
Salmonella typhimurium [35]
  Activity: Non-toxic
Aurora kinase B [36]
  IC50: > 10 µM
[37]
  concentration at 8 h: > 3000 nM
[38]
  IC50: 26 nM
Mus musculus [39]
  Activity: 2%
[40]
  IC50: 110 nM
Mus musculus [41]
  Activity: 0%
[42]
  fraction unbound: 0.018
[43]
  inhibition in vivo at 200 mg/kg: 94%
Mus musculus [44]
  inhibition in vivo at 100 mg/kg: 45%
